From patent US9255257B2, “PmST1 mutants for chemoenzymatic synthesis of sialyl lewis X compounds” (THE REGENTS OF THE UNIVERSITY OF CALIFORNIA, priority 2011, dated 2016)

Key:
Experiment in all cases: α2-3-sialyltransferase activity, LacβMU as acceptor
Assay type in all cases: biochemical
Settings in all cases: apparent, donor, LacβMU 1 mM, Tris-HCl pH 8.5, 37° C.
[1] = target: Pasteurella multocida PmST1 double mutant E271F/R313Y of SEQ ID NO: 13 (E247F/R289Y of Δ24PmST1, SEQ ID NO: 11) (Pasteurella multocida, UniProt Q15KI8, E271F/R313Y)
Method: (§1) To obtain the apparent kinetic parameters of LacβMU as the acceptor for the α2-3-sialyltransferase activity, the kinetic assays were performed in duplicate in reaction mixtures of 10 μL containing Tris-HCl buffer (100 mM, pH 8.5), a fixed concentration of CMP-Neu5Ac (1 mM), different concentrations of LacβMU (0.2, 0.5, 1.0, 2.0, 5.0, and 9.0 mM) and the mutant proteins (2 μg mL^−1 of E271F, 2 μg mL^−1 of R313Y, and 1.6 μg mL^−1 of E271F/R313Y). All reactions were allowed to proceed at 37° C. for 5 min (E271F), 7 min (R313Y), and 10 min (E271F/R313Y). The apparent kinetic parameters were obtained by fitting the experimental data (the average values of duplicate assay results) into the Michaelis-Menten equation using Grafit 5.0.
(§2) To obtain the apparent kinetic parameters of CMP-Neu5Ac as the donor for the α2-3-sialyltransferase activity, the kinetic assays were performed in duplicate in reaction mixtures of 10 μL containing Tris-HCl buffer (100 mM, pH 8.5), a fixed concentration of LacβMU (1 mM), different concentrations of CMP-Neu5Ac (0.1, 0.2, 0.5, 1.0, 2.0, 5.0, 10.0 and 20.0 mM) and the mutant proteins (2 μg mL^−1 of E271F, 2 μg mL^−1 of R313Y, and 1.6 μg mL^−1 of E271F/R313Y). All reactions were allowed to proceed at 37° C. for 2 min (E271F), 7 min (R313Y), and 5 min (E271F/R313Y). The apparent kinetic parameters were obtained by fitting the experimental data (the average values of duplicate assay results) into the Michaelis-Menten equation using Grafit 5.0.
(§3) All the sialidase and α2-3-sialyltransferase assays were performed in an HPLC system. Reactions were stopped by adding 10 μL of ethanol. After necessary dilutions were performed to adjust the concentrations of the fluorescent-labeled compounds, the samples were then kept on ice until aliquots of 8 μL were injected and analyzed by a Shimadzu LC-6AD system equipped with a membrane on-line degasser, a temperature control unit, and a fluorescence detector (Shimadzu RF-10AXL). A reverse-phase Premier C18 column (250×4.6 mm i.d., 5 μm particle size, Shimadzu) protected with a C18 guard column cartridge was used. The mobile phase was 25% acetonitrile. The fluorescent compounds LacβMU and Neu5Acα2-3LacβMU were detected by excitation at 325 nm and emission at 372 nm.

[2] = target: Pasteurella multocida PmST1 mutant E271F of SEQ ID NO: 13 (E247F of Δ24PmST1, SEQ ID NO: 7) (Pasteurella multocida, UniProt Q15KI8, E271F)
Method: as §1, §2, §3

[3] = target: Pasteurella multocida PmST1 mutant R313Y of SEQ ID NO: 13 (R289Y of Δ24PmST1, SEQ ID NO: 9) (Pasteurella multocida, UniProt Q15KI8, R313Y)
Method: as §1, §2, §3

[4] = target: Pasteurella multocida PmST1 mutant M144H of SEQ ID NO: 13 (M120H of Δ24PmST1, SEQ ID NO: 5) (Pasteurella multocida, UniProt Q15KI8, M144H)
Method: (§4) Site-directed mutagenesis, expression and purification of PmST1 mutants. Site-directed mutagenesis was performed using the QuikChange multi-site-directed mutagenesis kit from Stratagene according to the manufacturer's protocol. The primers used were 5′-[…]-3′ (SEQ ID NO:35) for M144D; 5′-[…]a[…] -3′ (SEQ ID NO:36) for M144H; 5′-[…]-3′ (SEQ ID NO:37) for A35D; and 5′-[…]-3′ (SEQ ID NO:38) for A35H. The expression and purification of the mutants were performed as previously described for the WT PmST1 .
(§5) Kinetics of the α2-3-sialyltransferase activity of PmST1 mutants by HPLC analysis. With LacβMU as the acceptor substrate, the reactions were performed in duplicate at 37° C. for 10 min (M144D) or 4 min (M144H) in a reaction mixture (10 μL) containing Tris-HCl (100 mM, pH 8.5), an enzyme (5 μg mL^−1), and different concentrations (0.2, 0.5, 1.0, 2.0, and 5.0 mM) of LacβMU with a fixed concentration (1 mM) of CMP-Neu5Ac or different concentrations (0.2, 0.5, 1.0, 2.0, 5.0, and 10.0 mM) of CMP-Neu5Ac with a fixed concentration (1 mM) of LacβMU. With Le^xβMU as the acceptor substrate, the reactions were carried out in duplicate at 37° C. for 9 min (M144D) or 10 min (M144H) in a reaction mixture (10 μL) containing CAPSO (100 mM, pH 9.5), an enzyme (M144D, 39 μg mL^−1 or M144H, 5 μg mL^−), and various concentrations of Le^xβMU (1.0, 5.0, 10.0, 15.0, 25.0, and 35.0 mM) with a fixed concentration (1 mM) of CMP-Neu5Ac or various concentrations (0.2, 0.5, 1.0, 2.0, 5.0, 10.0, 20.0, and 40.0 mM) of CMP-Neu5Ac with a fixed concentration (1 mM) of Le^xβMU. Reactions were stopped by adding 10 μL of pre-chilled ethanol. The mixtures were incubated on ice for 30 min and centrifuged at 13,000 rpm for 5 min. The supernatants were diluted with 25% acetonitrile and kept on ice until aliquots of 8 μL were injected and analyzed by the Shimadzu LC-6AD system equipped with a membrane on-line degasser, a temperature control unit, and a fluorescence detector (Shimadzu RF-10AXL). A reverse-phase Premier C18 column (250×4.6 mm i.d., 5 μm particle size, Shimadzu) protected with a C18 guard column cartridge was used. The mobile phase was 25% acetonitrile. The fluorophore (MU)-labeled compounds were detected by excitation at 325 nm and emission at 372 nm. The apparent kinetic parameters were obtained by fitting the experimental data (the average values of duplicate assay results) into the Michaelis-Menten equation using Grafit 5.0.

[5] = target: Pasteurella multocida PmST1 mutant M144D of SEQ ID NO: 13 (M120D of Δ24PmST1, SEQ ID NO: 3) (Pasteurella multocida, UniProt Q15KI8, M144D)
Method: as §4, §5

In the case of CC(=O)N[C@H]1[C@H]([C@H](O)[C@H](O)CO)O[C@](OP(=O)(O)OC[C@H]2O[C@@H](n3ccc(N)nc3=O)[C@H](O)[C@@H]2O)(C(=O)O)C[C@@H]1O [CMP-Neu5Ac], the “kcat (CMP-Neu5Ac)” value [1] is reported as 23 ± 1 s⁻¹, the “kcat (CMP-Neu5Ac)” value [2] is reported as 26 ± 1 s⁻¹ and the “kcat (CMP-Neu5Ac)” value [3] is reported as 19 ± 1 s⁻¹. For the same compound, the “kcat (CMP-Neu5Ac)” value [4] was 21 ± 1 s⁻¹ and the “kcat (CMP-Neu5Ac)” value [5] was 1.9 ± 0.1 s⁻¹.
